How the values were obtained:
[1] = molecular target: T1, Streptococcus mutans sucrose phosphorylase (GtfA, S. mutans SP), wild type, gene gtfA SEQ ID NO:5 (Streptococcus mutans serotype c, UniProt P10249); design: fragment containing the gtfA gene coding for the Streptococcus mutans sucrose phosphorylase, was cloned into the expression vector pET15b; made in house; host or cells: E. coli BL21 (DE3); details: compared with endogenous maize endosperm enzymes; in words; cited from earlier work
[2] = tested on: sucrose phosphorylase (microbial); details: general statement, no method given; cited from earlier work
[3] = molecular target: T1, Streptococcus mutans sucrose phosphorylase (GtfA, S. mutans SP), wild type, gene gtfA SEQ ID NO:5; details: ratio to L. mesenteroides enzyme
Procedure: (§2) The assay reaction mixture (1 ml final volume) contained 50 mM Hepes-NaOH pH 7.0, 50 mM sucrose, 5 mM MgCl2, 1 mM NADP, 20 mM Kpi monobasic pH 7.0 (50 mM for GtfA), 8 IU phosphoglucomutase, 2 IU glucose-6-phosphate dehydrogenase and appropriate amounts of Spl or GtfA. Production of NADPH was monitored spectrophotometrically at 340 nm. One unit of Spl or GtfA activity was defined as the amount of the enzyme which caused the reduction of 1 μmol of NADP per minute under the above conditions. A control reaction in which inorganic phosphate was omitted from the reaction mixture was always conducted for each Spl or GtfA assay.

[4] = molecular target: T2, Leuconostoc mesenteroides sucrose phosphorylase (Spl, L. mesenteroides SP), wild type, gene spl SEQ ID NO:6 (Leuconostoc mesenteroides, UniProt Q59495); experiment: Kinetic analysis of sucrose phosphorylase Spl (continuous coupled spectrophotometric assay); type: biochemical; details: 25° C., pH 7.0, read-out: Km(Pi)
T2 construct: fragment containing the spl gene, encoding the Leuconostoc mesenteroides sucrose phosphorylase enzyme; made in house; host or cells: E. coli BL21 (DE3)
T2 sequence (Q59495 1-490): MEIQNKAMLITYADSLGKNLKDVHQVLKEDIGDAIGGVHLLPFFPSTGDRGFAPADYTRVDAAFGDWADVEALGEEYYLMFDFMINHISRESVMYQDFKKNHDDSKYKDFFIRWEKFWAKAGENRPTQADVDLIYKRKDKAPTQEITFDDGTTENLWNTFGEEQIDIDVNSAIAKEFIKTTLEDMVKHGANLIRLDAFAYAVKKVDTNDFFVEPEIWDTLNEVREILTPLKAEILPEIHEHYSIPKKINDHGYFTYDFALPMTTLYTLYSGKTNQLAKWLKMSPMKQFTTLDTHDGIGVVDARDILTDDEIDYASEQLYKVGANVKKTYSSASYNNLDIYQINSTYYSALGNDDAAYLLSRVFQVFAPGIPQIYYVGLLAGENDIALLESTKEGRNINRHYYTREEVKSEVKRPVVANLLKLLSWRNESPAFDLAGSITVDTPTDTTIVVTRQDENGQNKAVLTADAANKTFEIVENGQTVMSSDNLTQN
From the text: (§3) In order to evaluate the kinetic properties of two sucrose phosphorylase enzymes, the sucrose phosphorylase genes from Streptococcus mutans and Leuconostoc mesenteroides were separately cloned into pET15 expression vectors so that they could be overexpressed in E. coli.
(§4) For the purification of sucrose phosphorylase (Spl or GtfA), colonies of cells containing the correct plasmid construct were picked and used to grow liquid cultures (under Ampicillin selection), induced with IPTG (all purification steps were conducted at 4° C.). After growing an induced cell culture, the bacterial cell pellet was spun down and suspended in Buffer A (50 mM Tris-HCl, pH 7.5, 1 mM EDTA, 5% glycerol and 40 μl/ml protease inhibitor cocktail, purchased from Boehringer Mannheim Cat.#1-697-498)and cells were lysed using a French Press. The cell lysate was clarified by centrifugation at 15,000 rpm for 10 minutes. Ammonium sulfate was added to the supernatant to reach 30% saturation, and the resultant mixture was then applied onto a phenyl-Sepharose 4B column which was pre-equilibrated with Buffer B (10 mM Tris-HCl, pH 8.0, 1 mM DTT and 1 mM EDTA) plus 20% (w/v) ammonium sulfate. […] Combined proteins were concentrated by precipitation with 70% saturation of ammonium sulfate followed by resuspension of the protein pellet in a small volume (2 or 4 ml) of Buffer C (10 mM Tris-HCl, 1 mM EDTA and 10% Glycerol). The sample was dialyzed in 2 liters of Buffer C two to three times (about 2 h for each) to completely remove ammonium sulfate prior to further purification. The dialyzed sample was injected into a Mono Q column which was pre-equilibrated with Buffer C. The sucrose phosphorylase was eluted from the column with a linear gradient of NaCl from 0 to 0.4 M in Buffer C.

[5] = molecular target: Leuconostoc mesenteroides sucrose phosphorylase (Spl), gene spl SEQ ID NO:6 (Leuconostoc mesenteroides, UniProt Q59495); details: 50 mM Pi, 100 mM sucrose, 35° C., pH 7.0
From the text: (§1) To further characterize the sucrose phosphorylases from S. mutans and L. mesenteroides, plasmid constructs containing the spl or the gtfA genes were made for protoplast transformation. A 1461 bp NcoI/BamHI fragment, containing the gtfA gene was isolated by restriction digestion, gel purified, and ligated to a 4646 bp BamHI/NcoI vector fragment containing the enhanced 35S promoter (e35S; Kay et al., 1987), the HSP70 intron (U.S. Pat. No. 5,593,874), the Nopaline synthase 3′ region (Fraley et al., 1983), and a pUC vector derived backbone. A vector was thus created, containing the expression cassette [p-e35S/HSP70/gtfA/NOS3′]. After ligation, the plasmid constructs were transformed into competent DH5α cells, and the transformed cells were plated out on Ampicillin-containing medium. From the colonies that were formed, positive clones were identified by restriction digest. In a similar experiment a 1491bp NcoI/BamHI fragment, containing the spl gene, was isolated by restriction digestion, gel purified, and ligated to the same 4646bp BamHI/NcoI vector fragment (described above). After ligation, transformation of competent cells, and identification of positive clones, the resulting plasmid constructs were used for corn leaf protoplast transformation. Corn leaf protoplast transformation was performed essentially as described by Sheen J., 1991, with some modifications to the protocol.

[6] = molecular target: Streptococcus mutans sucrose phosphorylase (GtfA), gene gtfA SEQ ID NO:5 (Streptococcus mutans serotype c, UniProt P10249); details: 50 mM Pi, 100 mM sucrose, 35° C., pH 7.0
Sequence of Streptococcus mutans sucrose phosphorylase (GtfA), gene gtfA SEQ ID NO:5 (P10249 whole entry, looked up, change not shown): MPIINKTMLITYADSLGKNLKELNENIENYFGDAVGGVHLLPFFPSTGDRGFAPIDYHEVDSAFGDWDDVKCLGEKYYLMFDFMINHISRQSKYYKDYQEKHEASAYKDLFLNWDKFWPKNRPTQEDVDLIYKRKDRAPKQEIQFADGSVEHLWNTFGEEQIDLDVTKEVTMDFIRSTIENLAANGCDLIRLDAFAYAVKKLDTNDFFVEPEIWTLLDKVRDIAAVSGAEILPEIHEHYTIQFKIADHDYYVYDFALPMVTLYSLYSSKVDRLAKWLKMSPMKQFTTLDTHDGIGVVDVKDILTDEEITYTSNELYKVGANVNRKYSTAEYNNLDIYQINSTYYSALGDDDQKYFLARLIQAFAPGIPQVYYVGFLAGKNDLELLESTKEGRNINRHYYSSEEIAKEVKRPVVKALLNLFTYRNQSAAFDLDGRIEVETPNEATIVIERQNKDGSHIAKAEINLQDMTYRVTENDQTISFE
From the text: as §1

[7] = tested on: OC[C@H]1O[C@@](CO)(O[C@H]2O[C@H](CO)[C@@H](O)[C@H](O)[C@H]2O)[C@@H](O)[C@@H]1O; experiment: purified protein, by the assay type; details: other: 25° C., pH 7.0, S. mutans SP
Procedure: as §2

[8] = substrate: OC[C@H]1O[C@@](CO)(O[C@H]2O[C@H](CO)[C@@H](O)[C@H](O)[C@H]2O)[C@@H](O)[C@@H]1O; experiment: Kinetic analysis of sucrose phosphorylase Spl (continuous coupled spectrophotometric assay); type: biochemical, Leuconostoc mesenteroides; details: other: 25° C., pH 7.0, L. mesenteroides SP
From the text: as §3, §4

T1 sequence (P10249 whole entry, looked up, change not shown, the tested form may be a part): as the sequence (P10249 whole entry, looked up, change not shown) above

## OC[C@H]1O[C@@](CO)(O[C@H]2O[C@H](CO)[C@@H](O)[C@H](O)[C@H]2O)[C@@H](O)[C@@H]1O [sucrose]
[1]
  Km of GftA for sucrose relative to the endogenous enzymes: lower Km
[2]
  Km: 1 to 25 mM
[3]
  Km(sucrose) of the S. mutans enzyme lower than that of the L. mesenteroides enzyme: about 10 times lower
  Vmax of S. mutans sucrose phosphorylase lower than that of the enzyme from L. mesenteroides: about 9 times lower

## O=P(O)(O)O [Pi, inorganic phosphate]
[4]
  Km: 4.88 mM
[5]
  activity (% of optimal activity): about 80%
[6]
  activity (% of optimal activity): 100%

## Streptococcus mutans sucrose phosphorylase (GtfA, S. mutans SP), wild type, gene gtfA SEQ ID NO:5 (Streptococcus mutans UA159)
[7]
  Km: 0.33 mM
  Vmax: 8.5 U/mg

B1: Leuconostoc mesenteroides sucrose phosphorylase (Spl, L. mesenteroides SP), wild type, gene spl SEQ ID NO:6 (Leuconostoc mesenteroides) (protein)
chain: T2 sequence (Q59495 1-490)
notes: fragment containing the spl gene, encoding the Leuconostoc mesenteroides sucrose phosphorylase enzyme; made in house; host or cells: E. coli BL21 (DE3)
[8]
  Km: 3.39 mM
  Vmax: 71.3 U/mg

Source: patent USRE39114E1, “Expression of sucrose phosphorylase in plants” (Monsanto Technology LLC, priority 1995, dated 2006)
